Series [1] is described as follows: In vitro photoprotection study of 2% (w/w) macrogol formulations on PMMA plates. To be noted: for UVA PF / UVA/UVB Ratio / λc (critical wavelength): 2% (w/w) macrogol formulation F1 (Triacetin 4.8%); for SPFin vitro: 2% (w/w) macrogol formulation F1 (Tween 20, PEG-400, PEG-1500, Triacetin 4.8%). The text has this:
The composition of formulations and concentration of tested compounds were based on their limited solubility. N-monosubstituted compounds 2a–2e were insoluble at desirable concentrations in the typical solvents used in cosmetic formulations such as alcohols, triacetin, surfactants, and co-surfactants. To dissolve compounds 2a and 2b before incorporation to the formulation DMSO: Tween 20 (1:9 w/w) was used, for less soluble 2c–2e it was necessary to use DMSO alone as solvent. […] Thus the detailed composition of the formulations is as follows: F1–Tween 20 43.2%, PEG-400 25%, PEG-1500 25%, Triacetin 4.8%, tested compound 2%; F2–Tween 20 43.2%, PEG-400 25%, PEG-1500 25%, DMSO 4.8%, tested compound 2%; F3–PEG-400 25%, PEG-1500 25%, DMSO 48%, tested compound 2%. Considering the disadvantages of currently reported macrogol formulations and the low concentration achieved for the tested compounds (2%), we plan to work on cosmetic emulsions containing the most promising derivatives at higher concentrations as well as required excipients including preservatives, antioxidants, etc. This research will be carried out in the near future.
Tested compounds and commercial UV filters as reference standards were incorporated to a neutral macrogel formulation in the concentration of 2%. Prior to the incorporation, compounds 3a–3e and 4f–4h and reference UV-filters were dissolved in a triacetin:Tween 20 (1:9) solvent system. For compounds 2a–2e it was necessary to use DMSO. The final composition of the macrogol formulations is presented in the photoprotective activity section.
In vitro photoprotection study was performed according to EN ISO 24443:2012 [71] with slight modifications. Formulation with tested compound (32.5 mg) was applied on a polymethylmethacrylate plate (PMMA) with the application area 25 cm^2 and 5 µm roughness value to simulate the skin surface (Schonberg GmbH, Hamburg, Germany). As a reference a PMMA plate treated with approximately 15 µL of glycerin was used. Measurements were carried out by reflectance spectrophotometry with SPF-290AS Analyser (Solar Light Company, Glenside, PA, USA) equipped with integrating sphere controlled by WinSPF version X.X. software. For each sample two plates were prepared, absorbance measures were performed on 6 different positions of the plate from 290 to 400 nm with 1 nm steps. The results were expressed as an average of data from 12 scans.

Series [2] is described as follows: Ultraviolet spectroscopy in methanol solutions. To be noted: for Absorption Range: scan range 290–400 nm. The class given is physicochemical. As to the method: Spectra with a scan range of 290–400 nm were recorded in 50 or 25 μM methanol solutions, in 1 cm path length, 1.5 mL quartz cuvettes on a U-2800 double beam spectrophotometer (Hitachi, Tokyo, Japan) controlled by UV Solution version 2.2 software. The molar extinction coefficient at maximum absorption (εmax) of tested compounds was determined in methanol as the slope of the linear regression of absorbance vs. concentration of tested compound (from 10 to 50 μM or 2.5 to 30 μM).

Series [3] in a line: Photostability in methanol solutions (solar light simulator). The class given is physicochemical. Set-up: λmax pre-irradiation: unit not given beside the values. To be noted: methanol solution; for % of initial AUC post-irradiation / λmax post-irradiation: 1h irradiation at 500 W/m2. As to the method: (§1) The photostability evaluation of compounds was performed both in methanol solutions and in macrogol formulations. Irradiation of samples according to previous studies was conducted for 1 h at 500 W/m^2 (cumulative dose of ultraviolet radiation 218 kJ/m^2) with solar light simulator (Suntest CPS+, Atlas, Linsengericht, Germany) equipped with an optical filter cutting off wavelengths shorter than 290 nm and IR-block filter to neutralize thermal effects. The UV absorption spectrum of the samples were analysed post-irradiation and compared with pre-irradiation results. UPLC-MS/MS analyses were also performed.
(§2) Methanol solutions were tested at concentration 25 or 50 µM in quartz cuvettes with the PTFE stopper to prevent evaporation or leaking of the solvent. Macrogol formulations (2% w/w) were tested on PMMA plates (1.3 mg/cm^2). After post-irradiation measure of UV absorption, exposed and unexposed plates were washed with 5 mL of methanol, then mixtures were filtered and analysed by UPLC-MS/MS. All analyses were performed in duplicates.

The nature of series [4]: In vitro stability in mouse liver microsomes. It counts as in vitro ADME. Conditions: mouse liver microsomes. As to the method:
Mouse liver microsomes (MLMs) were used to investigate the phase I metabolism of selected compounds (2c, 2d, 3b, 4g, 5a) and the reference substance BP-2. Samples composed of test compound (20 µM), MLMs (0.8 mg/mL) and potassium phosphate buffer (100 mM, pH 7.4) were preincubated prior to addition of NADPH-regenerating system. NADPH-regenerating system contained NADP, glucose-6-phosphate, glucose-6-phosphate dehydrogenase and potassium phosphate buffer (100 mM, pH 7.4). Control incubations were performed in the absence of the NADPH-regenerating system and in case of esters (2c, 2d, 3b and 4g) without the mouse liver microsomes solution to determine spontaneous hydrolysis. Incubations were conducted at 37 °C for at least 15 min up to 60 min. The reactions were stopped by the addition of 250 μL ice-cold methanol containing internal standard PTX (20 μM). The mixture was then centrifuged. Supernatant analysis was performed using UPLC/MS (Waters Corporation). The assays were repeated two times. The in vitro half times (t1/2) for test compounds were determined from the slope of the linear regression of ln % parent compound remaining versus incubation time. The calculated t1/2 was incorporated into the following equation to obtain intrinsic clearance: (Clint) = (volume of incubation [µL]/ protein in the incubation [mg]) × 0.693 / t1/2 [74].

The nature of series [5]: Ames MPF Penta 2 microplate mutagenicity assay, TA98. The class given is cell-based. Conditions: Salmonella typhimurium, read-out: FIB (fold induction over baseline), positive control. As to the method: (§3) The assay is a liquid microplate modification of the traditional Salmonella test. During the procedure, bacteria are exposed to different concentrations of a test compound for 90 min in a medium containing sufficient histidine (S. typhimurium) or tryptophan (E. coli) to support cell divisions. Then, the cultures are diluted in pH indicator medium lacking histidine or tryptophan and aliquoted into 48 wells of a 384-well plate. Within 48 hours, cells that have undergone reversion to amino acid prototrophy will grow into colonies. Bacterial metabolism reduces pH of the medium, changing the color of that well from purple to yellow (https://www.xenometrix.ch).
(§4) The following strains were used in the study: S. typhimurium TA98, TA100, TA1535, TA1537 and E. coli wp2 uvrA[pKM101]. TA100, TA1535 and E. coli strains are used for the detection of base substitution mutations, whereas TA98 and TA1537 are utilized for the detection of frameshift mutations. S. typhimurium strains have GC base pairs, whereas E. coli strain has AT base pair at their primary reversion site and detect certain oxidizing mutagens, cross-linking agents and hydrazines.
(§5) The test procedure provided by Xenometrix (https://www.xenometrix.ch) and described earlier was followed. Briefly, the bacterial strains were grown overnight in exposure medium and exposed to test compounds 4g and 3b in 24-well plates for 90 min at 37 °C with agitation in the absence (–S9) or presence (+S9) of 4.5% phenobarbital/ β-naphthoflavone-induced rat liver S9. Compounds 4g and 3b were dissolved in DMSO and tested at final concentrations of 0.1, 0.2 and 0.5 mM. After the preincubation, the cultures were diluted in the indicator medium and the contents of each 24-well culture were distributed into 48 wells on a 384-well plate and incubated further for 48 h at 37 °C without agitation. After the exposure, the number of wells containing bacteria was scored by eye for yellow wells. Positive and negative controls were included in the assay, and all doses were done in triplicate.
(§6) Pure DMSO was used as the negative control.
(§7) The fold increase of revertants relative to the solvent control was determined by dividing the mean number of positive wells at each dose by the solvent control at baseline. The solvent control at baseline was defined as the mean number of positive wells in the solvent control plus one standard deviation (SD). When an increase of more than 2-fold relative to the baseline at more than one dose with a dose–response is observed the sample is classified as positive, whereas when no response >2 times the baseline and no dose–response is stated the sample is negative.

Series [6] can be described thus: Ames MPF Penta 2 microplate mutagenicity assay, TA100. The class given is cell-based. To be noted: Salmonella typhimurium; TA100, +S9, 1.25 µg/mL; read-out: FIB (fold induction over baseline), positive control. As to the method:
as §3, §4, §5, §6, §7

Series [7] is described as follows: in vitro. Conditions: Salmonella typhimurium. As to the method: as §3, §4, §5, §6, §7
Series [8] is described as follows: Ames MPF Penta 2 microplate mutagenicity assay, TA1535. Conditions: Salmonella typhimurium, FIB (fold induction over baseline), positive control, TA1535, –S9, 100 µg/mL. As to the method: as §3, §4, §5, §6, §7
Series [9] can be described thus: Photostability in macrogol formulations on PMMA plates (solar light simulator). The class given is physicochemical. Conditions: after 1 h irradiation at 500 W/m^2, formulation F1. The procedure: After irradiation of thin layer of formulations applied on PMMA plates, their photoprotective parameters were determined and compared with the pre-irradiation results. The study gives an overview on functional photostability of the tested compounds. It is an important test, because the photostability of some compounds in low concentrated solutions may meaningfully differ from results obtained for higher concentrations used in sunscreen products. […] In the present study both UVB and UVA-absorbers were tested, so the changes in SPFin vitro, UVA PF and AUC after irradiation are taken into account as a measure of photostability.
as §1, §2

The values that follow come from publication PMC6630718, “Discovery of Novel UV-Filters with Favorable Safety Profiles in the 5-Arylideneimidazolidine-2,4-dione Derivatives Group” (Molecules, 2019).

As to `COc1ccc(C(=O)CC(=O)c2ccc(C(C)(C)C)cc2)cc1` [Avobenzone, butyl methoxy-dibenzoylmethane, reference compound], in series [1], the “UVA PF” value came to 7.56 ± 0.19, the “UVA/UVB Ratio” value was 2.49 ± 0.03, the λc (critical wavelength) is 381 nm and the SPFin vitro is on record as 2.23 ± 0.03. Moreover, in series [2], the εmax turned out to be 36820 M⁻¹ cm⁻¹, the λmax came to 358 nm and the “Absorption Range” value is given as 290–393 nm.

For `COc1ccc(/C=C2\NC(=O)NC2=O)cc1OC` [Compound 1e, (Z)-5-(3,4-Dimethoxybenzylidene)imidazolidine-2,4-dione], in series [3], the λmax pre-irradiation is given as 341, the “% of initial AUC post-irradiation” value is given as 95.38% and the λmax post-irradiation was 346. Moreover, in [2], the εmax was found to be 28440 M⁻¹ cm⁻¹, the λmax worked out at 341 nm and the “Absorption Range” value is recorded as 290–384 nm. Besides, the “Probable Transformation” value in series [4] is reported as “O-dealkylation”. For the same compound, in [4] (mouse, pH 7.4, mouse liver microsomes 0.8 mg/mL, 20 µM compound, NADPH-regenerating system, 37 °C, read-out: t ½), the half-life at 20 µM turned out to be 1.02 h. Besides, the microsomal CLint (commonly a measure of how fast metabolising enzymes remove a compound, apart from limits set by blood flow) at 20 µM in series [4] (mouse, pH 7.4, mouse liver microsomes, calculated from t1/2) was 14 µL/min/mg.

With `Nc1ccc2cc3ccccc3cc2c1` [Compound 2-AA, 2-aminoanthracene, reference compound], the fold induction at 90 min, 0.5 µg/mL in series [5] (TA98, +S9, 0.5 µg/mL) is 12.6. Also, the fold induction at 90 min, 1.25 µg/mL in [6] amounted to 3.1.

Regarding `O=[N+]([O-])c1ccc2c(c1)Cc1ccccc1-2` [Compound 2-NF, 2-nitrofluorene, reference compound], in series [5] (S. typhimurium TA98 without S9 (–S9), TA98, –S9, 2 µg/mL), the fold induction at 90 min, 2 µg/mL amounted to 25.3.

On to `Nc1c2ccccc2nc2ccccc12` [Compound 9-AAc, 9-aminoacridine, reference compound], for which the fold induction at 90 min, 15 µg/mL in series [7] was determined as 48.

Compound `NNc1ccn([C@@H]2O[C@H](CO)[C@@H](O)[C@H]2O)c(=O)n1` [Compound N4-ACT, N4-aminocytidine, reference compound] returned a fold induction at 90 min, 100 µg/mL in series [8] of 40.

For `CCCCC(CC)COC(=O)C=Cc1ccc(OC)cc1` (stereo not drawn) [EHMC, ethylhexyl methoxycinnamate, reference compound], in series [1], the “UVA PF” value turned out to be 1.34 ± 0.05, the “UVA/UVB Ratio” value is listed as 0.05 ± 0.01, the λc (critical wavelength) is 321 nm and the SPFin vitro is listed as 4.96 ± 0.33. Moreover, in series [9], the “% of Initial AUC” value is listed as 78.45%, the “% of Initial SPFin vitro” value was 80.83% and the “% of Initial UVA PF” value was 88.76%. In [3], the “decrease of AUC after irradiation” value is reported as 36.7%, the λmax pre-irradiation was 309, the “% of initial AUC post-irradiation” value is reported as 63.26% and the λmax post-irradiation was 307. Besides, in series [2], the εmax turned out to be 22990 M⁻¹ cm⁻¹, the λmax worked out at 309 nm and the “Absorption Range” value was 290–339 nm.

On to `CCCCC(CC)COC(=O)C(C#N)=C(c1ccccc1)c1ccccc1` (stereo not drawn) [Octocrylene, octocrylene, reference compound], for which, in series [1], the “UVA PF” value is on record as 1.20 ± 0.03, the “UVA/UVB Ratio” value is listed as 0.12 ± 0.01, the λc (critical wavelength) came out at 327 nm and the SPFin vitro is 2.87 ± 0.16. For the same compound, in series [2], the εmax worked out at 13650 M⁻¹ cm⁻¹, the λmax was 302 nm and the “Absorption Range” value was 290–349 nm.
